According to ChEMBL document CHEMBL5550088, “Design, synthesis and evaluate of indazolylaminoquinazoline derivatives as potent Tropomyosin receptor kinase (TRK) inhibitors” (Bioorg Med Chem, 2024):

Key:
[1] = target: High affinity nerve growth factor receptor (Homo sapiens, UniProt P04629); experiment: Inhibition of wild type TRKA (unknown origin) preincubated for 30 mins followed by ATP and U Light-poly GT addition and measured after 2 hrs by multilabel plate reader method
BaF3 [2] = experiment: Antiproliferative activity against mouse BaF3 cells harbouring ETV6-TRKA wildtype assessed as cell viability measured after 72 hrs by CCK-8 method; settings: BaF3, 72 h
BaF3 [3] = experiment: Antiproliferative activity against mouse BaF3 cells harbouring ETV6-TRKB wildtype assessed as cell viability measured after 72 hrs by CCK-8 method; settings: BaF3, 72 h
BaF3 [4] = experiment: cells; settings: Mus musculus, BaF3, 72 h
BaF3 [5] = experiment: cells; settings: Mus musculus, BaF3, 72 h; remark: listed apart in the source

High affinity nerve growth factor receptor, sequence (P04629 whole entry): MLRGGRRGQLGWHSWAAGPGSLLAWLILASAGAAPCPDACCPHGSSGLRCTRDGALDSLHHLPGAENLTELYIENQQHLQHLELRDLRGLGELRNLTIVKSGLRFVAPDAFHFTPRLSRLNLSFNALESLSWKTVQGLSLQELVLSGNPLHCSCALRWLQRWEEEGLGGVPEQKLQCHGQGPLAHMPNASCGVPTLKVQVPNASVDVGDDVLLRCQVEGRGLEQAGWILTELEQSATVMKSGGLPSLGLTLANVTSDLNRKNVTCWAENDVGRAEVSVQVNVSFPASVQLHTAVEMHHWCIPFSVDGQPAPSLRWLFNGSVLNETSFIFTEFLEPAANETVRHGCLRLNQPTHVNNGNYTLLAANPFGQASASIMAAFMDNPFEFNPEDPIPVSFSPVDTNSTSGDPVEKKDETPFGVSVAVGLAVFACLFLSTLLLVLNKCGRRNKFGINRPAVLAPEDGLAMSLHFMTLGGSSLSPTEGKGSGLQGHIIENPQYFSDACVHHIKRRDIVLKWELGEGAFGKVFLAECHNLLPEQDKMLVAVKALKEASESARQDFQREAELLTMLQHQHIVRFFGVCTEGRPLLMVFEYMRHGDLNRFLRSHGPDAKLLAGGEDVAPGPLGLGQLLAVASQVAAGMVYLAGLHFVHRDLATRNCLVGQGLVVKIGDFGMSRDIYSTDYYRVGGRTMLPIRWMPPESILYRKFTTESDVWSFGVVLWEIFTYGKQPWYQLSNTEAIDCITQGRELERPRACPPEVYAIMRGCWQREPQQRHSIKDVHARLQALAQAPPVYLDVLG

| IC50 [1] | IC50 (BaF3 [2]) | IC50 (BaF3 [3]) | IC50 (BaF3 [4]) | IC50 (BaF3 [5]) | Structure (SMILES) |
| --- | --- | --- | --- | --- | --- |
| 1.9 nM |  |  |  |  | CN(C)C1CCN(c2ccc3c(Nc4n[nH]c5ccc(Cc6cc(F)cc(F)c6)cc45)n[nH]c3c2)C1 (stereo unspecified) |
| 2.3 nM |  |  |  |  | CN(C)C1CCN(c2ccc3c(Nc4n[nH]c5ccc(Cc6cc(F)cc(F)c6)cc45)ncnc3c2)C1 (stereo unspecified) |
|  | 14.6 nM | 4.9 nM | 2890 nM | 755 nM | O=C(Nc1cnn2ccc(N3CCC[C@@H]3c3cc(F)ccc3F)nc12)N1CC[C@H](O)C1 [LAROTRECTINIB] |
